From patent publication US20070053955A1, “Compositions and methods for improving cellular survival and reducing apoptosis after ischemic episode in the brain” (NESTEC S.A., priority 2005, published 2007)

How the values were obtained:
Assay type in all cases: in vivo
[1] = tested on: transient cerebral ischemia in an ovariectomized rat model; assay: Transient middle cerebral artery (tMCA) occlusion, ischemic lesion (infarct) volume by TTC staining; conditions: all rats, vs control diet, 60 min tMCA occlusion, 24 h reperfusion (FIG. 1)
Protocol: Animals. Female Charles Rivers Sprague-Dawley rats (250 g, Wilmington, Mass.) were acclimatized to animal facilities three days prior to surgery with a 12 hour light-dark cycle. Bilateral ovariectomy was performed 2 weeks before diet feeding began. Four weeks after the start of diet feeding, transient middle cerebral artery (tMCA) occlusion under anesthesia was performed following intraperitoneal (i.p.) injection of ketamine (60 mg/kg) and xylazine (10 mg/kg).
Diet and Hormone Administration. Fourteen to 15 rats per group were randomly assigned to one of five treatment groups. These groups were as follows: […]
All diets were fed ad libitum to the rats for four weeks. […] Also once per week, body weights and food intake were determined. […]
Middle cerebral artery occlusion and samples preparation. […] Rectal temperature was monitored and maintained between 36.5 and 37° C. with a heating pad throughout the procedure. […]
Some animals were eliminated from the study during the protocol. The number of animals quantified for lesion volume ranged from 12 to 15 per group.
Statistical methods. Results were analyzed with one-way analysis of variance (ANOVA) using Prism software(Graphpad Inc; San Diego, Calif.). The significance of differences among groups was determined by one-way ANOVA followed by Tukey's multiple comparison tests. All values were expressed as mean±SEM.

[2] = tested on: transient cerebral ischemia in an ovariectomized rat model; assay: Cerebral ischemia-induced apoptosis, DNA fragmentation by TUNEL staining after tMCA occlusion; conditions: mean of three brain regions, normalized to DAPI cell count, vs control diet (FIG. 3)
[3] = tested on: growth factors and anti-inflammatory proteins; assay: Expression of growth factors and anti-inflammatory proteins in dogs given supplemental arginine; conditions: dietary supplementation

Structure (SMILES) | effect on infarct size / mean infarct volume [1] | reduction of infarct volume ([1]; diets fed 4 weeks, E2 implant 1 week) | TUNEL staining / TUNEL-positive cell counts [2] | expression of growth factors and anti-inflammatory proteins [3]
C[C@]12CC[C@@H]3c4ccc(O)cc4CC[C@H]3[C@@H]1CC[C@@H]2O [Estradiol, 17β-estradiol] | reduced infarct size | 68% | substantial reduction in TUNEL staining | 
N=C(N)NCCC[C@H](N)C(=O)O [arginine, L-arginine] |  |  |  | increased expression of multiple growth factors and anti-inflammatory proteins in a dose-dependent manner
